# According to ChEMBL document CHEMBL5352404, “Synthesis and evaluation of novel furanones as biofilm inhibitors in opportunistic human pathogens” (Eur J Med Chem, 2022):
# The source made the active and inactive calls. The rule behind the calls is not given here.
# Key:
# [1] = test system: Stenotrophomonas maltophilia; experiment: Antibacterial activity against Stenotrophomonas maltophilia K279a assessed as bacterial growth inhibition at 50 uM incubated for 20 hrs by broth microdilution method; format: functional, organism-based
# Pseudomonas aeruginosa [2] = experiment: Inhibition of biofilm formation in eYFP labeled Pseudomonas aeruginosa PAO1 at 50 uM incubated for 24 hrs by crystal violet staining based analysis relative to control; format: functional
# Staphylococcus aureus = experiment: Inhibition of biofilm formation in Staphylococcus aureus Newman ATCC 25904 at 50 uM incubated for 24 hrs by crystal violet staining based assay relative to control; format: functional
# Pseudomonas aeruginosa [3] = experiment: Antibacterial activity against Pseudomonas aeruginosa PAR7244 assessed as bacterial growth inhibition at 50 uM incubated for 20 hrs by broth microdilution method; format: functional, organism-based
# [4] = test system: Stenotrophomonas maltophilia; experiment: Inhibition of biofilm formation in Stenotrophomonas maltophilia K279a at 50 uM incubated for 24 hrs by crystal violet staining based analysis; format: functional, organism-based
# Pseudomonas aeruginosa [5] = experiment: Antibacterial activity against eYFP labeled Pseudomonas aeruginosa PAO1 assessed as inhibition of bacterial growth at 50 uM incubated for 20 hrs by broth microdilution method relative to control; format: functional; design: scale not given: the % may be the effect or the level left
# Escherichia coli [6] = experiment: Antibiofilm activity against Escherichia coli ATCC 9637 assessed as reduction in biofilm formation at 50 uM incubated for 24 hrs by crystal violet staining based assay relative to control; format: functional; design: scale not given: the % may be the effect or the level left
# Escherichia coli [7] = experiment: Antibacterial activity against Escherichia coli ATCC 9637 assessed as bacterial growth inhibition at 50 uM incubated for 20 hrs by broth microdilution method relative to control; format: functional; design: scale not given: the % may be the effect or the level left
# Salmonella typhimurium [8] = experiment: Antibacterial activity against Salmonella enterica subsp. enterica serovar Typhimurium assessed as bacterial growth inhibition at 50 uM incubated for 20 hrs by broth microdilution method; format: functional, organism-based
# [9] = Toxicity in Galleria mellonella larvae assessed as reduction in animal survival at 100 uM
# Candida albicans [10] = experiment: Antibiofilm activity against Candida albicans M2396 at 50 uM incubated for 24 hrs by confocal laser-scanning microscopy; format: functional, organism-based
# Salmonella typhimurium [11] = experiment: Antibiofilm activity against Salmonella enterica subsp. enterica serovar Typhimurium assessed as reduction in biofilm formation at 50 uM incubated for 24 hrs by crystal violet staining based assay relative to control; format: functional; design: scale not given: the % may be the effect or the level left
# [12] = Toxicity in Galleria mellonella larvae assessed as signs of melanization at 100 uM
# Candida albicans [13] = experiment: Inhibition of biofilm formation in RFP-expressing Candida albicans M2396 at 50 uM incubated for 24 hrs by crystal violet staining based analysis relative to control; format: functional
# HK-2 = experiment: Cytotoxicity against human HK-2 cells assessed as reduction in cell survival at 50 uM incubated for 24 to 48 hrs by MTT assay; format: toxicity, cell-based; settings: hk-2, 50 µM, time 24-48 hrs
# Candida albicans [14] = experiment: Inhibition of biofilm formation in developmental phase of Candida albicans M2396 at 50 uM incubated for 24 hrs by crystal violet staining based analysis relative to control; format: functional
SMILES,Activity [1],inhibition at 50 µM (Staphylococcus aureus) [%],Activity (Pseudomonas aeruginosa [3]),inhibition [4],Activity (Pseudomonas aeruginosa [5]),other results
COc1ccccc1C(=C1C=CC(=O)O1)c1ccccc1OC,inactive,7,inactive,inactive,<=5%,inhibition at 50 µM (Pseudomonas aeruginosa [2]): 41%
O=C1C=CC(=C(c2ccc([N+](=O)[O-])cc2)c2ccc([N+](=O)[O-])cc2)O1,inactive,,inactive,inactive,<=5%,
O=C1C=CC(=C(c2ccc(O)cc2)c2ccc(O)cc2)O1,inactive,52,inactive,inactive,<=5%,
COc1ccccc1/C(Br)=C1\C=CC(=O)O1,inactive,,inactive,inactive,<=5%,
COc1ccc(C#CC(C#Cc2ccc(OC)cc2)=C2C=CC(=O)O2)cc1,inactive,36,inactive,inactive,<=5%,Activity (Escherichia coli [6]): 31%; Activity (Escherichia coli [7]): 8%
O=C1C=C(CBr)C(=O)O1,inactive,,inactive,inactive,<=5%,
O=C1C=CC(=C(c2ccc(C(F)(F)F)cc2)c2ccc(C(F)(F)F)cc2)O1,inactive,,inactive,inactive,<=5%,
O=C1C=C/C(=C(/Br)c2ccc(F)cc2)O1,inactive,,inactive,inactive,<=5%,
O=C1C=C(CBr)C(=C(Br)Br)O1,inactive,71,inactive,inactive,<=5%,Activity (Salmonella typhimurium [8]): Active; Activity [9]: Non-Toxic; inhibition at 50 µM (Pseudomonas aeruginosa [2]): 60%; Activity (Candida albicans [10]): Active; Activity (Salmonella typhimurium [11]): 72%; Activity [12]: Non-Toxic; inhibition at 50 µM (Candida albicans [13]): 51%; Activity (HK-2): Toxic
O=C1C=CC(=C(c2cccc([N+](=O)[O-])c2)c2cccc([N+](=O)[O-])c2)O1,inactive,,inactive,inactive,<=5%,
COc1ccc(C(=C2C=CC(=O)O2)c2ccc(OC)cc2)cc1,inactive,44,inactive,inactive,<=5%,inhibition at 50 µM (Candida albicans [14]): 75%; inhibition at 50 µM (Candida albicans [13]): 61%
O=C1C=CC(=C(c2ccc(F)cc2)c2ccc(F)cc2)O1,inactive,,inactive,inactive,<=5%,
COc1ccc(C(=C2C=C(Br)C(=O)O2)c2ccc(OC)cc2)cc1,inactive,,inactive,inactive,<=5%,
O=C1C=C/C(=C(/Br)c2cccc([N+](=O)[O-])c2)O1,inactive,,inactive,inactive,<=5%,
COc1ccc(C(=C2C=C(Br)C(=O)O2)c2ccc(OC)c(Br)c2)cc1Br,inactive,,inactive,inactive,<=5%,Activity (Escherichia coli [6]): 15%
O=C1OC(=C(c2ccc(C(F)(F)F)cc2)c2ccc(C(F)(F)F)cc2)C=C1Br,inactive,,inactive,inactive,<=5%,
